Several values for one entry are separate records, joined by “and”; a condition that tells them apart may be missing. Equal values may be shown once. Entries after “also recorded” stand apart in the source; their conditions may differ.
Assays:
Format in all cases: in vivo, rat
[1] = test system: CYP-induced urinary bladder cystitis; test: Microscopic examination of urinary bladders after chronic administration (histology, immunohistochemistry)
Source text: At the end of the efficacy study of chronic administration, the urinary bladders were opened, placed in 10% buffered formalin and stored at room temperature until hystomorphological analysis.
Treatment with Compd. […] The induced lesions consisted of apoptosis, erosions of the mucosa, mitoses of the mucosal cells, mucosal hyperplasia, infiltration of inflammatory cells and micro-hemorrhages. Caspase 3 and caspase 9 expression (markers of apoptosis) as well as Ki67 expression (marker for cell proliferation) were reduced in the group treated with Compd. 1.

CYP-induced cystitis = test: Cystometrographic recordings in conscious rats with CYP-induced cystitis; conditions: for bladder volume capacity (BVC): 24 hours after CYP 175 mg/kg i.p.
Experimental: Female Sprague Dawley rats (Crl:CD(SD)BR, 250-350 g bw) from Charles River Italy were used in these experiments. Animals were housed with free access to food and water and maintained on a forced 12 hours light-dark cycle at 22-24° C. for at least one week before the experiments were carried out.
Rats, anaesthetized with equithensin solution (2 ml/kg i.p.), were placed in a supine position and an approximately 10 mm midline incision was made in the shaved and cleaned abdominal wall. The urinary bladder was gently freed from adhering tissues, emptied and then cannulated, via an incision at the dome, with a polyethylene cannula (Portex, ID 0.58 mm, OD 0.96 mm), which was permanently sutured with silk thread. The cannula was exteriorized through a subcutaneous tunnel in the retroscapular area, where it was connected with a plastic adapter, in order to avoid the risk of removal by the animal.
For drugs testing, rats were utilized one day after catheter implantation at about 24 hours after administrations CYP.
On the day of the experiment, the rats (fasted overnight) were placed in Bollman's cages; after a stabilization period of 20 min, the free tip of the cannula was connected by a T-shape tube to a pressure transducer and to a peristaltic pump for a continuous infusion of saline solution (room temperature) into the urinary bladder, at the constant rate of 0.05 ml/min. This procedure, termed cystometry, allows the detection of continuous cycles of filling and voiding of the bladder named cystometrograms.
From the cystometrograms acquired by the Biopac System and recorded on a PC the Bladder Volume Capacity (BVC) parameter was calculated as volume capacity, defined as volume (in ml) infused into the bladder and necessary to induce detrusor contraction followed micturition.
Basal BVC was evaluated as mean values from the cystometrograms recorded in 30-60 minutes of time prior the treatment (“BASAL”). Then the bladder infusion was stopped, the animals were treated orally with the test compound or vehicle and, after restarting continuous bladder filling with saline for 4 or 5 hours, BVC values after administration were collected.
BVC parameters were recorded from the cystometrogram over a 4/5 hours period post-dose.

[2] = test system: CYP-induced visceral pain; test: Acute administration in CYP-induced visceral pain in rats (Von Frey mechanical threshold)
Experimental: Female Sprague Dawley rats (Crl:CD(SD)BR, 250-350 g) from Charles River Italy were used in these experiments. Animals were housed with free access to food and water and maintained on a forced 12 hours light-dark cycle at 22-24° C. for at least one week before the experiments were carried out. The animals were handled according to internationally accepted principles for care of laboratory animals (E.E.C. Council Directive 86/609, […]. 18, 1986). Cyclophosphamide, 75 mg/kg i.p. for 3 times, every 3rd day, was dissolved in distilled water and administered to animals by i.p. route (volume 5 mL/kg). Appropriate weight of Compd. 1 or Compd. 2 was dissolved in saline, all doses of test compounds were administered by oral gavage (volume 2 mL/kg). On the day of the experiment, each rat was placed individually in a clear plastic testing box with a grid floor and allowed to acclimatize for at least 10 min. Visceral sensitivity in response to mechanical stimuli was determined using Von Frey monofilaments (1-2-4-8-15-26-60-100 g) applied in the lower abdominal area (close to the urinary bladder) and on both hind paws plantar surface (to evaluate referred pain). Each Von Frey monofilament was applied 5 times at the level of abdomen and 3 times at the level of each paw, in an ascending order of strength at interval of 5 sec. A stimulus-induced response was considered positive when the paw was sharply withdrawn, paw licking occurred, or the animal flinched upon removal of the filament. Behavioral testing on animals was performed at 3 different times: • before CYP administration (in order to acquire basal values) • after CYP administration, before treatment with the test compound, to verify the pathology (in order to acquire pre-treatment values) • after CYP administration, after treatment (in order to acquire post-treatment values) […] The test was performed in blind. Compd. 1 and Compd. […]

KC/GRO-α = KC/GRO-α plasma content after preventive treatment in CYP-induced cystitis model in rats; conditions: day 9; 20 mg/kg p.o. 12 hours before first CYP, then 7 mg/kg p.o. twice a day for 7 days
Experimental: The effect of chronic preventive administration of Compd. 1 on KC/GRO-α plasma content in a CYP-induced cystitis model in conscious rats was evaluated.
To elicit cystitis, rats received intraperitoneal (i.p.) injections of CYP (75 mg/Kg every third day for three times). A single high dose of Compd. 1 (20 mg/kg) was orally administered 12 hours before the first CYP treatment; subsequently Compd. 1 (7 mg/kg p.o.) was administered twice a day for 7 days (from day 1 to day 7 from the first CYP administration). The oral dose of 7 mg/kg of Compd. 1 was chosen on the basis of previous evaluations. Animals blood was collected at day 7 (the same day of the last CYP treatment) at day 8 (about 24 hrs after last CYP administration) and at day 9 (about 48 hrs after last CYP administration). Each experimental group was composed of 10 animals, 10 animals treated with CYP+vehicle compound, 10 animals treated with CYP+Compd. 1, and 10 animals (sham) treated with CYP vehicle+vehicle compound.
The same animal was subjected to 3 blood serial samplings in order to evaluate the time-course of inflammatory mediators content. After thawing and centrifuge to remove any aggregates and lipid residues that could interfere with the reading, the samples were evaluated through quantitative analysis of KC/GRO-α.

[3] = immunohistochemistry, versus CYP group

Compound: C[C@H](C(=O)O)c1ccc(Nc2nc(C(F)(F)F)cs2)cc1 [Compd. 1, (2S)-2-(4-{[4-(trifluoromethyl)-1,3-thiazol-2-yl]amino}phenyl) propanoic acid]
- inflammatory, degenerative and proliferative lesions of the urinary bladder ([1]; 7 mg/kg oral twice a day for 6 days after CYP): clearly reduced or reversed the inflammatory, degenerative and proliferative lesions
- Incidence: Apoptosis epithelial cell, urinary bladder ([1]; animals of 10/group, 7 mg/kg oral twice a day for 6 days after CYP): 3/10 and 3
- Caspase 3 and caspase 9 expression (markers of apoptosis) [1, 3]: reduced
- Ki67 expression (marker for cell proliferation) [1, 3]: reduced; also recorded: lower grade of positivity
- bladder volume capacity (BVC) (CYP-induced cystitis; 10 mg/kg oral): did not induce any changes of BVC
- bladder volume capacity (BVC) (CYP-induced cystitis; 20 mg/kg oral): moderate increase of BVC statistically different from vehicle and pre-drug treatment at 4 and 5 hours
- bladder volume capacity (BVC) (CYP-induced cystitis; 30 mg/kg oral): sustained increase of BVC
- increase of BVC (CYP-induced cystitis; 30 mg/kg oral, significant at 3 and 4 hours after treatment): up to +40%
- MP (CYP-induced cystitis; 20 and 30 mg/kg oral): inactive on MP
- withdrawal thresholds, abdomen and hind paws ([2]; 1 mg/kg p.o., 2 hours after administration, versus pre-treatment): not significantly different from the pretreatment values
- mechanical threshold, abdomen and hind paws ([2]; 3 mg/kg p.o., 2 hours after administration, versus pre-treatment): statistical significant increase of mechanical threshold in both the areas evaluated
- mechanical threshold, abdomen and hind paws ([2]; 7 mg/kg p.o., 2 hours after administration, versus pre-treatment): statistical significant reduction of painful hypersensitivity in both the abdominal and plantar surface
- mechanical threshold, abdomen and hind paws ([2]; 10 mg/kg p.o., 2 hours after administration, versus pre-treatment): statistically significant increase in mechanical threshold in both the abdomen and paws area; also recorded: statistical significant reduction of painful hypersensitivity in both the abdominal and plantar surface
- mechanical threshold, abdomen and hind paws ([2]; 30 mg/kg p.o., 2 hours after administration, versus pre-treatment): statistically significant increase in mechanical threshold in both the abdomen and paws area
- MED ([2]; p.o., acute administration): 3 mg/kg
- GRO-α/KC blood levels (KC/GRO-α): significantly reduces GRO-α/KC blood levels at day 9
